Laboratory results: US20220168430A1, “THERAPEUTIC METHODS FOR TREATING HEPATITIS B” (priority 2019, published 2022)

Test system: HBsAg
Experiment: microbe, parasite or virus in culture
Assay type: cell-based, HBV genotype D; primary human hepatocytes
Details: Hepatitis B virus
Description: The day PHH seeding date was defined as day 0.
The PHH were infected with 400 HBV GE/cell of HBV genotype D type HBV on day 1.
The test articles were further diluted with the culture medium to the final test concentrations.
All the test articles were further diluted 100 times with the culture medium. The final concentration of DMSO in the culture medium was […].
The compounds were tested at 7 concentrations, 3-fold dilution, in triplicate.
Four two-way combinations were performed on a 5×5 matrix, in triplicate plates. Transfection reagent was present in all wells. The culture medium containing the articles were refreshed every 1 or 2 days.
HBsAg in the culture supernatants harvested on days 8 was measured using the HBsAg/ELISA kit (Autobio) according to the manual. The samples were diluted with PBS to get the signal in the range of the standard curve. Percent inhibition of HBsAg was calculated with the formula below:
% Inh. HBsAg=[1−HBsAg quantity of sample/[…] of DMSO control]×100
Results of double combination studies were analyzed using MacSynergy II software (Prichard and Shipman, 1992).

CC(C)OC(=O)[C@H](C)N[P@](=O)(CO[C@H](C)Cn1cnc2c(N)ncnc21)Oc1ccccc1 [TAF, tenofovir alafenamide] showed an EC50 of 4.12 nM.
